This passage reports Kd results from PMC10611796, “The α-synuclein PET tracer [18F] ACI-12589 distinguishes multiple system atrophy from other neurodegenerative diseases” (Nature Communications, 2023).

This test has as its target T1, α-synuclein (Homo sapiens, UniProt P37840).
T1 construct: gene SNCA; pathological α-syn aggregates in post-mortem human brain tissue
As to the kind of experiment: radioligand saturation binding (autoradiography and radiobinding) on human brain tissue; displacement by unlabeled ACI-12589; micro-autoradiography.

ACI-12589 had a Kd of 33.5 ± 17.4 nM.

A word on the Kd: it is the equilibrium constant for the complex coming apart. The low end stands for higher affinity, the high end for lower affinity.
